According to patent publication US20120065084A1, “METHODS AND TOOLS FOR PREDICTING THE EFFICIENCY OF ANTHRACYCLINES IN CANCER” (UNIVERSITE LIBRE DE BRUXELLES, priority 2010, published 2012):

Tested on: primary breast tumor
Assay: neoadjuvant prospective TOP trial: pathological complete response to anthracyclines (epirubicin) monotherapy
Assay type: in vivo, human
Procedure: One hundred and forty-nine patients were included in the prospective TOP trial. Out of these patients, 89 received 4 cycles of anthracyclines every 3 weeks, 59 patients received 6 cycles of anthracyclines administered every 2 weeks (dose-dense scheme) and one was not treated according to the protocol due to ineligibility.
The neoadjuvant prospective “TOP” (Trial of Principle) trial was conducted at different European hospitals and coordinated by the Institut Jules Bordet. This study is registered on the clinical trials site of the US National Cancer Institute website http://clinicaltrials.gov/ct2/show/NCT00162812?term=NCT00162812&rank=1. One hundred and forty-nine patients have been included in this trial. Anthracyclines (Epirubicin) monotherapy (100 mg/m2) was given as neo-adjuvant chemotherapy: every 3 weeks×4 cycles for early BC or every 2 weeks×6 cycles with Neulasta® 6 mg on day 2 for patients with inflammatory or locally advanced breast cancer. At completion of chemotherapy, every patient underwent surgery with axillary node sampling. After surgery, adjuvant docetaxel (100 mg/m2×4 cycles) and loco-regional irradiation were administered using standard criteria. This study was primarily designed for the identification of biomarkers of response to anthracyclines (epirubicin).
All patients underwent pretreatment core biopsies of the primary breast tumor before starting neo-adjuvant chemotherapy using a 14G needle. Two biopsies were embedded in OCT (Sakura), frozen in liquid nitrogen within 5 minutes and transferred to a −80° C. freezer. Two biopsies were fixed in formalin and embedded in paraffin. Both fixed and frozen samples were retrieved and stored at the Institut Jules Bordet in Brussels, where the TOP2A evaluations were carried out. Pathologic response was determined by microscopic examination of the excised tumor and nodes after completion of chemotherapy. Pathological complete response (pCR) was defined by the absence of residual invasive breast carcinoma (macro and microscopic) in the breast and in the axillary nodes. Persistence of in-situ carcinoma without invasive component was considered pCR.

## COc1cccc2c1C(=O)c1c(O)c3c(c(O)c1C2=O)C[C@@](O)(C(=O)CO)C[C@@H]3O[C@H]1C[C@H](N)[C@@H](O)[C@H](C)O1 [anthracyclines, Epirubicin]
3-weekly scheme (every 3 weeks x 4 cycles)
  pathological complete response (pCR) rate: 14%
HER2-negative patients (FISH)
  proportion of patients who presented a pCR: 10%
HER2-positive patients (FISH)
  proportion of patients who presented a pCR: 23%
All patients of the TOP trial, neo-adjuvant epirubicin monotherapy 100 mg/m2
  pathological complete response (pCR) rate: 15%
dose-dense scheme (every 2 weeks x 6 cycles)
  pathological complete response (pCR) rate: 16%
Patients whose tumors had no TOP2A amplification (FISH)
  patients who responded to the anthracyclines therapy (pCR): 9%
Patients with TOP2A amplified tumors (FISH)
  patients who responded to the anthracyclines therapy (pCR): 55%
